Molecular target: PRMT5-MEP50 enzyme complex (Homo sapiens (Human), UniProt O14744)
Experiment: PRMT5 enzyme activity in vitro assay (methylation of histone H4R3, ELISA absorbance at 450 nm)
Type: biochemical
Details: SAM, histone H4 peptide, room temperature 2 hours, 8 points from 10 μM to 0.128 nM
Procedure: Method for Measuring Enzyme Activity
In vitro assay: PRMT5-MEP50 enzyme complex, cofactor S-adenosylmethionine (SAM) and histone H4 peptide were reacted in vitro, and methylation of arginine (H4R3)—which is the third amino acid of histone H4—was measured in order to measure the enzyme activity of PRMT5.
Reagents: PRMT5-MEP50 enzyme complex (Catalog No. 51045), blocking buffer (52100-B), histone methyltransferase reaction buffer 2 (4×HMT assay buffer 2, Catalog No. 52170), and primary antibody (primary antibody 4-3, Catalog No. 52150) were purchased from BPS Bioscience (USA). The histone H4 peptide (1-20 amino acids) was custom made by Komabiotech (Korea) and used. S-adenosylmethionine was purchased from NEB (New England Biolabs, USA, Catalog No. B9003S). Plates for coating histone H4 peptide, washing buffer and color development reagent were purchased from the following vendors: Plate (Immobilizer™-Amino Plate, NUNC, Denmark, Catalog No. 436023), carbonate-bicarbonate buffer (Sigma-Aldrich, USA, Catalog No. C3041), washing buffer (10×TBST, Biosesang, Korea, Catalog No. T2005), TMB ELISA substrate (Abcam, UK, Catalog No. ab210902), horseradish peroxidase (HRP)-conjugated antibody (Abcam, UK, Catalog No. ab6721).
Experimental procedure: The histone H4 peptide was diluted with carbonate-bicarbonate buffer and prepared to 100 μg/mL, and then dispensed onto the plate per 100 μL and reacted at 37° C. for 1 hour. PRMT5-MEP50 enzyme complex and S-adenosylmethionine were diluted with histone methyltransferase reaction buffer to prepare 5 μg/mL and 2 μM, respectively, and then 20 μL of PRMT5-MEP50 enzyme complex and 25 μL of S-adenosylmethionine were dispensed onto the plate prepared above. 5 μL of the compound diluted with 10% dimethyl sulfoxide solution was added thereto and reacted at room temperature for 2 hours (final volume=50 μL). The concentration of the compound was diluted 1:5 from 10 μM until the lowest concentration of 0.128 nM, and 8 points were used for the test. After preparing the primary antibody by diluting 1:2000 with blocking buffer, 100 μL was added to the plate and reacted at room temperature for 1 hour. After preparing horseradish peroxidase-conjugated antibody by diluting 1:10,000 with blocking buffer, 100 μL was added to the plate and reacted at room temperature for 1 hour. 100 μL of TMB substrate was added and reacted for 3 minutes at room temperature, and 100 μL of 1 N sulfuric acid was then added to terminate the reaction. Then, the absorbance at 450 nm was measured to calculate the IC50 value of the compound. (+++: 1 to 100 nM, ++: greater than 100 to 1,000 nM, +: greater than 1,000 to 10,000 nM)

Chain of PRMT5-MEP50 enzyme complex (O14744 2-637): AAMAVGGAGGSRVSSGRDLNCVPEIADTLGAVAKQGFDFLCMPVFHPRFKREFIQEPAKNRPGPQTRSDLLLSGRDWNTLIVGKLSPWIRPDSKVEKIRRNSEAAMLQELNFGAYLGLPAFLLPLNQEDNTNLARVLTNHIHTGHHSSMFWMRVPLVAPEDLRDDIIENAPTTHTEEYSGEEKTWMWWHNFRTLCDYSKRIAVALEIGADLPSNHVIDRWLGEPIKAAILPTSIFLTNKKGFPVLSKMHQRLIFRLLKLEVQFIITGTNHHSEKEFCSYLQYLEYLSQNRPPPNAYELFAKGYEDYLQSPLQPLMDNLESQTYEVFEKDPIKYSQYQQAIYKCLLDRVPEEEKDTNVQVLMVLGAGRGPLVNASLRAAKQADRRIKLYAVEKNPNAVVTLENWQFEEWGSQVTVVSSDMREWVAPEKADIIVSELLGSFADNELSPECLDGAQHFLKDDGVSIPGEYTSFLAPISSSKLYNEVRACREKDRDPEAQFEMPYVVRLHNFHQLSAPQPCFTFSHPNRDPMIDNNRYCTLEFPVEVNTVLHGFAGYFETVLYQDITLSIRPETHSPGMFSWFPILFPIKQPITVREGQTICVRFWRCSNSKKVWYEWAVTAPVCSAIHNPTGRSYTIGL
Chain of PRMT5-MEP50 enzyme complex (Q9BQA1 2-342 partner): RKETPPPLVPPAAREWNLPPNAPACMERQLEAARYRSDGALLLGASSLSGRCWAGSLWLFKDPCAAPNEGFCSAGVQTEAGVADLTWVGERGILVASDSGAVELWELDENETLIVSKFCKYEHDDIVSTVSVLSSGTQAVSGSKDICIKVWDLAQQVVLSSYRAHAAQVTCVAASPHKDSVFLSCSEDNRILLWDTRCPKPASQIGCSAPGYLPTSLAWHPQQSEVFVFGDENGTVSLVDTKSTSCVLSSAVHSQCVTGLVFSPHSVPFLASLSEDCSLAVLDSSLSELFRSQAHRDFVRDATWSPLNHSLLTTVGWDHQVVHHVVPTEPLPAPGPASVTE

Row | Compound | IC50 [nM]
1 | O=C1c2ccc(OCC(F)(F)F)cc2OCCN1C[C@H](O)CN1CCc2ccccc2C1 [Example 71, 4-[(2R)-3-(3,4-dihydro-1H-isoquinolin-2-yl)-2-hydroxy-propyl]-8-(2,2,2-trifluoroethoxy)-2,3-dihydro-1,4-benzoxazepin-5-one] | 100 to 1000
2 | CN1CC(Oc2ccc3c(c2)OCCN(C[C@H](O)CN2CCc4ccccc4C2)C3=O)C1 [Example 93, 4-[(2R)-3-(3,4-dihydro-1H-isoquinolin-2-yl)-2-hydroxy-propyl]-8-(1-methylazetidin-3-yl)oxy-2,3-dihydro-1,4-benzoxazepin-5-one] | 100 to 1000
3 | CC1(C)CN(C[C@H](O)CN2CCc3ccccc3C2)C(=O)c2ccc(OC3CCN(CCO)CC3)nc2O1 [Example 234, 4-[(2R)-3-(3,4-dihydro-1H-isoquinolin-2-yl)-2-hydroxy-propyl]-8-[[1-(2-hydroxyethyl)-4-piperidyl]oxy]-2,2-dimethyl-3H-pyrido[3,2-f][1,4]oxazepin-5-one] | 1 to 100
4 | O=C1c2ccc(OC3CN(C(=O)C(F)F)C3)cc2OCCN1C[C@H](O)CN1CCc2ccccc2C1 [Example 161] | 1 to 100
5 | Cc1nn(C)cc1-c1ccc2c(c1)OCCN(C[C@H](O)CN1CCc3ccccc3C1)C2=O [Example 231, 4-[(2R)-3-(3,4-dihydro-1H-isoquinolin-2-yl)-2-hydroxy-propyl]-8-(1,3-dimethylpyrazol-4-yl)-2,3-dihydro-1,4-benzoxazepin-5-one] | 1 to 100
6 | CC1(C)CN(C[C@H](O)CN2CCc3ccccc3C2)C(=O)c2ccc(CN3CCOCC3)cc2O1 [Example 111, 4-[(2R)-3-(3,4-dihydro-1H-isoquinolin-2-yl)-2-hydroxy-propyl]-2,2-dimethyl-8-(morpholinomethyl)-3H-1,4-benzoxazepin-5-one] | 100 to 1000
7 | CN1CCN(C[C@H](O)CN2CCc3ccccc3C2)C(=O)c2ccc(C3=CCCCC3)cc21 [Example 118, 8-(cyclohexen-1-yl)-4-[(2R)-3-(3,4-dihydro-1H-isoquinolin-2-yl)-2-hydroxy-propyl]-1-methyl-2,3-dihydro-1,4-benzodiazepin-5-one] | 1 to 100
8 | O=C1c2ccc(OCc3ccnc(F)c3)cc2OCCN1C[C@H](O)CN1CCc2ccccc2C1 [Example 58, 4-[(2R)-3-(3,4-dihydro-1H-isoquinolin-2-yl)-2-hydroxy-propyl]-8-[(2-fluoro-4-pyridyl)methoxy]-2,3-dihydro-1,4-benzoxazepin-5-one] | 1 to 100
9 | CC1CCN(Cc2ccc3c(c2)OCCN(C[C@H](O)CN2CCc4ccccc4C2)C3=O)CC1 [Example 27, 4-[(2R)-3-(3,4-dihydro-1H-isoquinolin-2-yl)-2-hydroxy-propyl]-8-[(4-methyl-1-piperidyl)methyl]-2,3-dihydro-1,4-benzoxazepin-5-one] | 1 to 100
10 | CN1CCC(Oc2ccc3c(c2)OCCN(C[C@H](O)CN2CCc4ccccc4C2)C3=O)C(F)C1 (stereo partly drawn) [Example 206, 4-[(2R)-3-(3,4-dihydro-1H-isoquinolin-2-yl)-2-hydroxy-propyl]-8-[(3-fluoro-1-methyl-4-piperidyl)oxy]-2,3-dihydro-1,4-benzoxazepin-5-one] | 100 to 1000
11 | O=C1c2ccc(C(=O)N3CC4CCC3C4)cc2OCCN1C[C@H](O)CN1CCc2ccccc2C1 (stereo partly drawn) [Example 188, 8-(2-azabicyclo[2.2.1]heptane-2-carbonyl)-4-[(2R)-3-(3,4-dihydro-1H-isoquinolin-2-yl)-2-hydroxy-propyl]-2,3-dihydro-1,4-benzoxazepin-5-one] | 100 to 1000
12 | CN1CCC(COc2ccc3c(c2)N(C)CCN(C[C@H](O)CN2CCc4ccccc4C2)C3=O)C1 (stereo partly drawn) [Example 131, 4-[(2R)-3-(3,4-dihydro-1H-isoquinolin-2-yl)-2-hydroxy-propyl]-1-methyl-8-[(1-methylpyrrolidin-3-yl)methoxy]-2,3-dihydro-1,4-benzodiazepin-5-one] | 100 to 1000
13 | O=C(c1ccc2c(c1)OCCN(C[C@H](O)CN1CCc3ccccc3C1)C2=O)N1CCCC(C(F)(F)F)C1 (stereo partly drawn) [Example 185, 4-[(2R)-3-(3,4-dihydro-1H-isoquinolin-2-yl)-2-hydroxy-propyl]-8-[3-(trifluoromethyl)piperidine-1-carbonyl]-2,3-dihydro-1,4-benzoxazepin-5-one] | 100 to 1000
14 | CC(c1ccc2c(n1)OC(C)(C)CN(C[C@H](O)CN1CCc3ccccc3C1)C2=O)N1CC2(COC2)C1 (stereo partly drawn) [Example 247, 4-[(2R)-3-(3,4-dihydro-1H-isoquinolin-2-yl)-2-hydroxy-propyl]-2,2-dimethyl-8-[1-(2-oxa-6-azaspiro[3.3]heptan-6-yl)ethyl]-3H-pyrido[3,2-f][1,4]oxazepin-5-one] | 100 to 1000
15 | O=C1c2ccc(OC3CCOCC3)cc2OCCN1C[C@H](O)CN1CCc2ccccc2C1 [Example 64, 4-[(2R)-3-(3,4-dihydro-1H-isoquinolin-2-yl)-2-hydroxy-propyl]-8-tetrahydropyran-4-yloxy-2,3-dihydro-1,4-benzoxazepin-5-one] | 1 to 100
16 | CC(=O)N1CC(Oc2ccc3c(c2)N(C)CCN(C[C@H](O)CN2CCc4ccccc4C2)C3=O)C1 [Example 122, 8-(1-acetylazetidin-3-yl)oxy-4-[(2R)-3-(3,4-dihydro-1H-isoquinolin-2-yl)-2-hydroxy-propyl]-1-methyl-2,3-dihydro-1,4-benzodiazepin-5-one] | 100 to 1000

Other lines, results leading:

Row | IC50 [nM] | Compound
17 | 100 to 1000 | CC1CC(C)CN(Cc2ccc3c(c2)OCCN(C[C@H](O)CN2CCc4ccccc4C2)C3=O)C1 (stereo partly drawn) [Example 33, 4-[(2R)-3-(3,4-dihydro-1H-isoquinolin-2-yl)-2-hydroxy-propyl]-8-[(3,5-dimethyl-1-piperidyl)methyl]-2,3-dihydro-1,4-benzoxazepin-5-one]
18 | 100 to 1000 | O=C1c2ccc(CN3CCC[C@H]3CO)cc2OCCN1C[C@H](O)CN1CCc2ccccc2C1 [Example 46, 4-[(2R)-3-(3,4-dihydro-1H-isoquinolin-2-yl)-2-hydroxy-propyl]-8-[[(2S)-2-(hydroxymethyl)pyrrolidin-1-yl]methyl]-2,3-dihydro-1,4-benzoxazepin-5-one]
19 | 1 to 100 | O=C1c2ccc(CN3CCC(F)(F)CC3)cc2OCCN1C[C@H](O)CN1CCc2ccccc2C1 [Example 31, 8-[(4,4-difluoro-1-piperidyl)methyl]-4-[(2R)-3-(3,4-dihydro-1H-isoquinolin-2-yl)-2-hydroxy-propyl]-2,3-dihydro-1,4-benzoxazepin-5-one]
20 | 100 to 1000 | O=C(c1ccc2c(c1)OCCN(C[C@H](O)CN1CCc3ccccc3C1)C2=O)N1CCC(F)(F)C1 [Example 177, 8-(3,3-difluoropyrrolidin-1-carbonyl)-4-[(2R)-3-(3,4-dihydro-1H-isoquinolin-2-yl)-2-hydroxy-propyl]-2,3-dihydro-1,4-benzoxazepin-5-one]
21 | 100 to 1000 | O=C1c2ccc(CN3CCCC(F)(F)C3)cc2OCCN1C[C@H](O)CN1CCc2ccccc2C1 [Example 42, 8-[(3,3-difluoro-1-piperidyl)methyl]-4-[(2R)-3-(3,4-dihydro-1H-isoquinolin-2-yl)-2-hydroxy-propyl]-2,3-dihydro-1,4-benzoxazepin-5-one]
22 | 100 to 1000 | CC(=O)N1CCN(Cc2ccc3c(c2)OCCN(C[C@H](O)CN2CCc4ccccc4C2)C3=O)CC1 [Example 53, 8-[(4-acetylpiperazin-1-yl)methyl]-4-[(2R)-3-(3,4-dihydro-1H-isoquinolin-2-yl)-2-hydroxy-propyl]-2,3-dihydro-1,4-benzoxazepin-5-one]
23 | 100 to 1000 | CC(=O)N1CCC(COc2ccc3c(c2)OCCN(C[C@H](O)CN2CCc4ccccc4C2)C3=O)CC1 [Example 70, 8-[(1-acetyl-4-piperidyl)methoxy]-4-[(2R)-3-(3,4-dihydro-1H-isoquinolin-2-yl)-2-hydroxy-propyl]-2,3-dihydro-1,4-benzoxazepin-5-one]
24 | 100 to 1000 | CC1(C)CN(C[C@H](O)CN2CCc3ccccc3C2)C(=O)c2ccc(CN3CCN(C=O)CC3)cc2O1 [Example 169, 4-[[4-[(2R)-3-(3,4-dihydro-1H-isoquinolin-2-yl)-2-hydroxy-propyl]-2,2-dimethyl-5-oxo-3H-1,4-benzoxazepin-8-yl]methyl]piperazine-1-carbaldehyde]
25 | 100 to 1000 | CC(=O)N1CCN(Cc2ccc3c(c2)OC(C)(C)CN(C[C@H](O)CN2CCc4ccccc4C2)C3=O)CC1 [Example 167, 8-[(4-acetylpiperazin-1-yl)methyl]-4-[(2R)-3-(3,4-dihydro-1H-isoquinolin-2-yl)-2-hydroxy-propyl]-2,2-dimethyl-3H-1,4-benzoxazepin-5-one]

From patent US11111237B2, “Bicyclic compound and use thereof” (SK BIOPHARMACEUTICALS CO., LTD., priority 2019, dated 2021)
